“Also recorded” adds a separate entry of the source. Read-outs that look alike come from different tables or passages of the source.

In general, IC50 refers to the midpoint of a concentration-inhibition curve.

For data set [1], the system named is MCF-7 cells. As to conditions: cited from earlier work.
The subject of data set [2] is MCF-7 cells. The data set is described as follows: Mitochondrial membrane potential (rhodamine 123, flow cytometry). The format is cell-based, human. As to conditions: MCF-7, compounds at respective IC50, 24 h. The method, then:
To determine whether the toxic effects of selected sesquiterpenes (10c, 11c, 12c, 13c, and 14c) are due to the production of ROS and subsequent apoptosis, the mitochondrial membrane potential was measured. With this aim, a protocol using rhodamine 123 staining and flow cytometry was established to study the effect of the selected compounds [40]. The accumulation of rhodamine 123 in mitochondria is associated with the maintenance of the electrochemical gradient in mitochondria. Daunorubicin was used as a positive control (C+). The results are presented as the percentage of cells with increased mitochondrial membrane permeability.
Rhodamine 123 (Rho123), a positively charged dye that reacts to voltage changes and enters the mitochondria, was utilized to detect modifications in the mitochondrial membrane potential. The cells were exposed to specific compounds (IC50 values for each compound) for 24 h. Control cells that had not been treated were used as negative control, while cells treated with daunorubicin at a concentration of 1 µM served as the positive control. Following this, the cells were incubated with Rho123 (at a concentration of 1 µM) in darkness for an hour at 37 °C. Afterward, the medium was taken out, and the cells were washed with PBS. The cells were then dissociated using trypsin and collected through centrifugation for 10 min at 1500×g. The supernatant was thrown away, and the cell pellets were resuspended in PBS and analyzed using flow cytometry with the FL1 filter. The results are shown as the percentage of Rho123-stained cells.
Figure 5 The effect of the compound’s treatment on mitochondrial membrane potential. […] The data represent the means ± S.D. of at least three experiments with triplicate samples.
For orientation: A flow cytometer gives signals particle by particle.

Data set [3] concerns MCF-7 cells. The experiment in a line: MTT cytotoxicity assay on MCF-7 cells. As to conditions: for IC50: Homo sapiens, MCF7, MTT, 48 h incubation, IC50 ± SD, three experiments in triplicate; for Selectivity Index (SI): SI = IC50 on MCF-10 cells/IC50 on MCF-7 cells. The format is cell-based, human. The method, then:
(§1) In this study, we wondered whether semi-synthetic compounds have potential antitumoral properties against BC. Therefore, we were interested in investigating the effect of the compounds on the MCF-7 cell line. Firstly, we studied the effect on cell viability using a colorimetric MTT assay, which was performed to quantify the cytotoxic activity; each compound was evaluated at different concentrations (500−100−20−4−0.8−0.16−0.032−0 µM). Daunorubicin was also used as a positive control for comparison with a reference drug. […] Although the MCF-10 cell line provides a useful selectivity model, it may not fully represent the varying sensitivities of different normal cell types within a multicellular organism. The SI value indicates the ratio of toxicity in mammalian host cells to that in a tumoral cell. The data obtained in response to different concentrations of compounds were used to calculate the IC50 and corresponding SI values, as shown in Table 1.
(§2) The American Type Culture Collection (Rockville, MD, USA) supplied the following experimental cell lines: MCF-7, a human breast cancer cell line, and MCF-10A, a human epithelial breast cell line (ATCC N° CRL-10317). Both cell lines were grown in DMEM-F12 medium containing 10% FCS, 100 U/mL penicillin, 100 μg/mL streptomycin, and 1 mM glutamine. The cells were seeded at a concentration of 100 μL per well at a plating density of 3 × 10^3 cells/well and incubated for 24 h at 37 °C under 5% humidified CO2 to enable attachment. The cells were then treated with varying concentrations of synthesized compounds for […] under the same conditions. The compound stock solution was prepared in DMSO, and the final concentration of DMSO was kept at 0.1%. Control cultures were treated with only 1% ethanol.
(§3) Cells from the MCF-7 and MCF-10 lines were seeded into 96-well plates at a density of 1 × 10^4 per well. After 24 h, the compounds were added at increasing concentrations (500–100–20-4–0.8–0.16–0.032–0 µM), and the cells were incubated at 37 °C in a humidified 5% CO2/95% air mixture for 48 h. Following incubation, the cells were washed twice with PBS, and 100 μL of 0.5 mg/mL MTT solution was added to each well. After 2 h of incubation, the MTT solution was removed, and the formazan crystals were dissolved in 50 μL of DMSO per well. Absorbance was then measured at 570 nm using a microplate ELISA reader. IC50 values, determined from three independent experiments conducted in triplicate, were calculated using SigmaPlot® software (version 11.0). The selectivity index (SI) of each compound in each cell line was determined by calculating the ratio of the IC50 values for MCF-10 and cancer cell lines. Compounds were considered selective if SI values were equal to or greater than 3 [46].

Data set [4] concerns caspases-3/7 in MCF-7 cells. The experiment in a line: Caspase-Glo 3/7 assay. As to conditions: MCF-7, 50 μM, 24 h, versus control. Format: cell-based, human. The method, then: Since ROS levels were increased in the MCF-7 cancer cell line in response to the compounds, it is important to determine whether this effect is associated with the onset of apoptotic cell death. […] Cells were treated with the selected compounds at 50 μM for 24 h, incubated in situ with the Caspase-Glo 3/7 marker assay, and then analyzed in a luminometer.
The activity of caspase 3/7 in MCF-7 cells treated with the compounds was determined using a Caspase-Glo-3/7 Assay kit from Promega (UK). This assay is a homogenous and luminescent method that measures the activity of caspase-3 and -7, which are essential for apoptosis. MCF-7 cells (1 × 10^4 cells per well) were seeded in a 96-well plate and incubated overnight. The cells were then treated for 24 h with the compounds (50 µM) and a blank as a control. After treatment, the Caspase-Glo® 3/7 reagent was prepared according to the manufacturer’s instructions. Specifically, 100 μL of the reagent was added to 100 μL of culture medium containing the treated cells in each well, and the mixture was incubated for 1 h at room temperature in the dark. Luminescence was then measured using a luminometer (Berthold Sirius Single Tube Luminometer). The fold change in caspase activity was calculated by expressing the average luminescence of each treatment as a fold change with respect to the average luminescence of the negative control.
Figure 6 The effect of the compounds on caspases-3/7 activity in cells from the human breast cancer cell line MCF-7. Caspases-3/7 activity was determined in MCF-7 cells following treatment with the compounds (50 μM) for 24 h. The data are reported as the ratio of activity in treated cells vs. the control (1% ethanol), which were arbitrarily assigned a unitary value. * p < 0.05 versus control cells (Ctrl). The data are reported as the mean values ± S.D. of three different experiments with samples in triplicate.

The subject of data set [5] is MCF-10 cells. The data set is described as follows: MTT cytotoxicity assay on non-tumoral MCF-10 cells. The format is cell-based, human. As to conditions: Homo sapiens, MCF10, 48 h incubation, IC50 ± SD, three experiments in triplicate. The method, then: as §1, §2, §3
Data set [6] concerns MCF-7 cells. The experiment in a line: Intracellular ROS generation (DCFH2-DA, flow cytometry). The format is cell-based, human. The conditions noted are these: MCF-7, compounds at respective IC50, 24 h, versus control. The method, then:
An increase in intracellular ROS may be one of the factors that contribute to the cytotoxicity of certain compounds in cancer cell lines. In fact, ROS and mitochondrial damage are often associated with the induction of cell death. […] DCF fluorescence was then measured by flow cytometry. The difference in the percentage of DCF-positive cells between treated and control cells was used to indicate an increase in intracellular ROS, as shown in Figure 4.
Reactive oxygen species (ROS) production was measured using flow cytometry. Cells were treated with compounds (each with respective IC50 values) for 24 h, with untreated cells serving as the negative control and cells treated with 1 µM daunorubicin as the positive control. Following the treatment, intracellular ROS levels were visualized after incubation with 2′,7′-dichlorodihydro-fluorescein diacetate (DCFH2-DA) at a final concentration of 10 μM for the last 30 min of the treatment period. After incubation, the cells were washed with PBS, trypsinized, and centrifuged, and the resulting pellet was resuspended in PBS and immediately examined by flow cytometry.
Figure 4 The effect of the compound’s treatment on intracellular ROS generation. Cells were treated with compounds (respective IC50 values for each compound for 24 h), and intracellular ROS levels were determined in the human cancer cell line MCF-7 by flow cytometry using dichloro-fluorescein diacetate (DCFH2-DA). * p < 0.05 versus control cells (Ctrl). The data represent the means ± S.D. of at least three experiments with triplicate samples.

In data set [7] the test system is human topoisomerase II. The data set is described as follows: TOP2 DNA relaxation / plasmid linearization assay. The format is biochemical. As to conditions: 20 μM. How it is done: The ability to relax DNA conformations is a central function of topoisomerase enzymes. Several studies have associated some proapoptotic compounds with the ability to inhibit topoisomerase enzymes. The ability of the selected compounds to inhibit TOP1 or TOP2 activity was determined. In this experiment, daunorubicin was used as a positive control for TOP1/2 inhibition, as previously reported. […] It is important to note the potential for cardiotoxicity associated with some TOP2 inhibitors, which highlights the relevance of assessing compound 14c’s interaction with TOP2B. […] Future studies should include assays to evaluate the specific activity of 14c against both TOP2A and TOP2B to provide a more comprehensive safety profile, as isoform-selective TOP2 inhibitors may offer a therapeutic advantage by reducing adverse effects.
Topoisomerase II-mediated DNA cleavage was assessed using a plasmid linearization assay adapted from previously described methods. Supercoiled plasmid DNA (200 ng final concentration) was incubated with purified human topoisomerase II (10 U) in the presence or absence of test agents or a positive control. Reactions were carried out in a total volume of 20 μL, composed of 2 μL of 10× topoisomerase II reaction buffer, an appropriate volume of compound or control, and nuclease-free water. ATP (final concentration adjusted from a 20 mM stock) was freshly added to the reaction buffer immediately prior to use. Reactions were initiated by the addition of topoisomerase II and incubated at 37 °C for 30 min. To terminate the reactions, 2 μL of 10% SDS was added directly to the tubes while still in the 37 °C water bath, followed by the addition of 1.5 μL of 250 mM tetrasodium EDTA (pH 8.0) and 2 μL of proteinase K solution (0.8 mg/mL). […]
Figure 7 The effect of sesquiterpene aryl esters on TOP1- and TOP2-induced DNA relaxation was assessed. (A) The TOP1 inhibition assay evaluated the compounds (10c, 11c, 12c, 13c, and 14c) at a concentration of 20 μM in a DNA relaxation assay. […]

Data set [8] has as its system MCF-10 cells. Also noted: method as in PMID 25412045. As to conditions: reference drug; cited from earlier work.

Consider `CC1=CC[C@H]2C(C)(C)CCC[C@]2(C)[C@H]1CO` [(-)-drimenol], for which the “cytotoxicity of the base sesquiterpene system” value in data set [1] (as previously reported by our group) was “inactive”.
`COc1ccc([C@@H](O)[C@H]2C(C)=CCC3C(C)(C)CCC[C@@]32C)cc1OC` (stereo partly drawn) [Compound 10c, (1S)-(3,4-Dimethoxyphenyl)((1S,8aS)-2,5,5,8a-tetramethyl-1,4,4a,5,6,7,8,8a-octahydronaphthalen-1-yl) methanol]: in data set [2], the mitochondrial membrane permeability entry is reported as “did not increase”. Besides, in data set [3], the IC50 amounted to 25.1 ± 2.2 µM and the “Selectivity Index (SI)” value was 9.9. Further, the caspases-3/7 activity entry in data set [4] is “considerably enhanced”. This compound yielded an IC50 in data set [5] of 248 ± 42.3 µM. In addition, in data set [6], the “intracellular ROS levels (DCF fluorescence)” value (from here on “intracellular ROS levels”) is on record as “significantly increased”.
Turning to `COc1ccc(C[C@H]2C(C)=CCC3C(C)(C)CCC[C@@]32C)cc1OC` (stereo partly drawn) [Compound 11c, (4aS,5S)-5-(3,4-Dimethoxybenzyl)-1,1,4a,6-tetramethyl-1,2,3,4,4a,5,8,8a-octahydronaphthalenene], the mitochondrial membrane permeability entry in data set [2] is listed as “did not increase”. In addition, in data set [3], the IC50 was determined as 13.5 ± 1.8 µM and the “Selectivity Index (SI)” value was determined as 6.5. Besides, in data set [4], the caspases-3/7 activity result was “considerably enhanced”. The IC50 in data set [5] came to 87.7 ± 17.8 µM. In data set [6], the “intracellular ROS levels” value is listed as “significantly increased; also recorded: most effective”.
Take `COc1ccc(C(=O)[C@H]2C(C)=CCC3C(C)(C)CCC[C@@]32C)cc1OC` (stereo partly drawn) [Compound 12c, (3,4-Dimethoxyphenyl)((1S,8aS)-2,5,5,8a-tetramethyl-1,4,4a,5,6,7,8,8a-octahydronaphthalen-1-yl)methanone]: in data set [2], the mitochondrial membrane permeability result is “did not increase”. In data set [3], the IC50 came to 30.1 ± 6.6 µM and the “Selectivity Index (SI)” value was found to be 4.3. Also, the caspases-3/7 activity entry in data set [4] is reported as “considerably enhanced”. Also, the IC50 in data set [5] is 131 ± 29.3 µM. In addition, in data set [6], the “intracellular ROS levels” value is given as “significantly increased”.
For `COc1cccc2c1C(=O)c1c(O)c3c(c(O)c1C2=O)C[C@@](O)(C(C)=O)C[C@@H]3O[C@H]1C[C@H](N)[C@H](O)[C@H](C)O1` [Daunorubicin, reference compound], the “Selectivity Index (SI)” value in data set [3] is recorded as 28. In addition, the “inhibition of TOP2-induced DNA relaxation” value in data set [7] is “modified the TOP2-induced DNA relaxation pattern”. Further, the 50% inhibitory concentration (IC50) in data set [1] (reference drug) is 0.33 ± 0.02 µM; in data set [8], 9.32 ± 1.01 µM.
